Reference: a melting point compilation (Tetko et al.; mined from patent text by program, amines drawn as free bases though some values may be those of a salt)

melting point	Structure (SMILES)
157 to 159 °C	O=c1c2ccccc2c(Cc2ccc(F)cc2)nn1N1CCNCC1
77 to 78 °C	CCOC(=O)c1cc2ccc(N(CC)CC)cc2oc1=O
186 to 187 °C	Cc1oc(-c2ccccc2)nc1COc1ccc(C(=O)c2ccccc2OC(C)C(=O)O)cc1 (stereo not given)
104 to 105 °C	COCC1OC(n2c(Cl)nc3cc(Cl)c(Cl)cc32)C(O)C1O (stereo not given)
143 to 144 °C	O=[N+]([O-])c1cccnc1Nc1ccc(O)cc1
144 to 146 °C	CC(=O)c1ccccc1-c1cccc(-n2cnc(-c3nc(C)no3)c2)c1
46 °C	CCOC(=O)C1CC1C(=O)O (stereo not given)
105 to 106 °C	O=c1c2cccnc2sc(=Nc2ccccc2)n1Cc1ccccc1
136 to 139 °C	CC(C)(C)NC(=O)C1CC(C)(C)NC(C)(C)C1=NO (stereo not given)
69 to 70 °C	O=C(c1ccccc1)c1cccc(OCCn2ccnc(N3CCNCC3)c2=O)c1
205 to 206 °C	NC(=O)c1ccc2cc(O)ccc2c1
112 to 114 °C	COc1cccc2c1Oc1cc(SC)ccc1C2
74 to 75 °C	COc1ccccc1C(N)=CC#N
201 to 203 °C	O=C(O)/C=C1\Cc2ccccc2C1=O
221 to 222 °C	COCn1nnc(NC(=O)C2c3ccccc3Oc3ccccc32)n1
254 °C	O=C(Nc1cccc(S(=O)(=O)NC2CC2)c1)c1cnn2c(C(F)F)cc(-c3ccc(Cl)c(Cl)c3)nc12
149 to 151 °C	CCOC(=O)C1=C(C)N(C)C(C)=C(C(=O)OCC)C1c1ccccc1/C=C/C(=O)OC(C)(C)C
119 to 120 °C	CC(C)(C)OC(=O)[C@@H]1CCCN1C(=O)C=CC(F)(F)F
184 to 187 °C	Nc1nc2c(ncn2COCCOCCO)c(=O)[nH]1
142 to 145 °C	N#CC(C#N)CC(=O)c1ccc(Cl)c(Cl)c1
48 to 49 °C	CCC(N)C(=O)Nc1c(C)cccc1C (stereo not given)
149 to 152 °C	COC(=O)CCc1ccc(N2CCCN(c3ccc(C#N)cc3)C2=O)cc1
167 to 168 °C	O=C1OC2CCSC2Cn2cccc21 (stereo not given)
69 to 71 °C	CCOC(Oc1cc(Cl)cc(Cl)c1)C(=O)NC(C)(C)C (stereo not given)
163 to 164 °C	CCOC(=O)C(=NO)c1ccc(Br)cc1

melting point	Structure (SMILES)
189 to 191 °C	COc1cc2c(c3c1OC(C)(C)C3)C(c1cccc(NC(=O)Nc3ccccn3)c1)=NC(C)(C)C2
143 to 145 °C	CC(C)C(=O)O[C@H]1[C@H](C)OC(=O)[C@@H](NC(=O)OC(C)(C)C)COC(=O)[C@@H]1Cc1ccccc1
172 to 174 °C	CC(C)(C)c1ccc2oc(-c3ccc(O)cc3)cc2c1
155 to 157 °C	O=c1cc2c(nn1-c1ccccc1)-c1ccccc1CC2
153 °C	COc1ccc(-c2n[nH]c3ccc([N+](=O)[O-])cc23)cc1
234 °C	Cc1ccc(S(=O)(=O)NC(=O)OCCc2ccc(-n3c(CCC(=O)c4ccccn4)nc4cc(C(F)(F)F)c(Cl)cc43)cc2)cc1
150 to 152 °C	Cc1ccccc1-c1cc(N2CCC(O)CC2)ncc1C(=O)N(C)Cc1cc(C(F)(F)F)cc(C(F)(F)F)c1
101 to 102 °C	Cc1cc2c(Cl)c(C#N)cnc2s1
> 260 °C	Cn1cncc1C(O)(c1ccc(Cl)cc1)c1ccc2c(c1)c(-c1cccs1)cc(=O)n2C (stereo not given)
45 to 46 °C	O=C(O)CCCCCCC=Cc1cccs1
93 to 99 °C	COc1cc(N2CCCN(C[C@H](O)CO)CC2)ccc1Nc1ncc2ccc(-c3ccccc3OC)n2n1
169 to 171 °C	Nc1c[nH]c(=S)n1C1CCc2ccccc2C1 (stereo not given)
133 °C	Cc1cccc(C)c1N(CCl)C(=O)c1ccccc1
146 to 148 °C	CCOC(=O)C1=C(C)NC(CN(C)C)=C(C(=O)OCC)C1c1ccccc1/C=C/C(=O)OC(C)(C)C (stereo not given)
164 to 165 °C	COc1ccc(N2CCN(C[C@H]3COc4ccc5nc(C)ccc5c4O3)CC2)cc1
121 to 123 °C	CCc1cc(O)c(C(C)=O)c(O)c1
248 to 249 °C	CCn1c(=O)c2c(nc(/C=C/c3cc(OC)c(OC(C)=O)c(OC)c3)n2C)n(CC)c1=O
97 to 98 °C	CC1(C)NCCc2c1oc1cc(I)ccc21
218 °C	Cn1cc(OS(C)(=O)=O)c(=O)c2ccc(C(F)(F)F)cc21
66 to 68 °C	Cc1ccc(C)n1CCN1CCCC1=O
78 to 86 °C	CC(C)C[C@@H](C(=O)N1CCN(C(c2ccc(F)cc2)c2ccc(F)cc2)CC1)N(Cc1ccc(C(C)(C)C)cc1)Cc1ccc(C(C)(C)C)cc1
171 to 172 °C	COC(=O)c1cccc(NC(N)=S)c1
147 to 148 °C	Ic1cnc2c(c1)N(Cc1ccccc1)CCN2
104 °C	COc1cc(Nc2nccc(Nc3ccc(N4CCN(C)CC4)cc3)n2)cc(OC)c1OC
169 to 171 °C	Cc1cc(N2CCN(C(=O)NCCCCC3CCSS3)CC2)ccc1N=C(N)c1cccs1 (stereo not given)

melting point	Structure (SMILES)
104 to 106 °C	CCOC(=O)CCC(=O)NCc1ccc([N+](=O)[O-])cc1
105 to 107 °C	COC(=O)C(Cc1ccc(-c2nc3ccc(OC)cc3n2C)cc1)N=[N+]=[N-] (stereo not given)
249 to 251 °C	CCOC(=O)c1nc2ccc(Cl)cc2c(=O)[nH]1
194 to 195 °C	CCc1noc(C)c1-c1[nH]c2ccccc2c1CC(N)=O
219 to 221 °C	O=C1CC[C@H](N2C(=O)c3cccc(CNC(=O)C4CC4)c3C2=O)C(=O)N1
133 to 134 °C	c1cc(-c2n[nH]c3c2Cc2ccc(CN4CCCC4)cc2-3)cs1
50.9 to 52.5 °C	CCCCCCCCCCc1sc2c(sc3c2sc2c4sccc4sc23)c1CCCCCCCCCC
219 to 220 °C	O=C(O)c1cn(C2CC2)c2c(F)c(N3CCNC(CF)C3)c(F)c(F)c2c1=O (stereo not given)
124 to 126 °C	CC(=O)Nc1cc(C(C)=O)ccc1OCCCCl
129 °C	CNn1c(N(C)C)n[nH]c1=O
121 to 123 °C	O=C(NC(C(=O)O)c1ccc2c(c1)CCO2)OCc1ccccc1 (stereo not given)
146 to 148 °C	Oc1ccccc1-c1cc(-c2ccc(F)c(F)c2)cc(-c2ccc(Cl)cc2)n1
35 to 42 °C	CCOC(=O)c1cc2ccc(C)cc2o1
174 to 176 °C	COC(=O)C1=C(C(OC)OC)NC(C)=C(P2(=O)OCCCO2)C1c1ccccc1[N+](=O)[O-] (stereo not given)
128 to 130 °C	O=C1Cc2c(Cl)cccc2Sc2c(F)cccc21
202 °C	O=C(O)Cc1cc(C=Cc2ccccc2)ccc1O
142 to 146 °C	FC(F)(F)c1ccccc1-c1cccc(C=NNC(=S)NN2CCCC2)n1
202 to 204 °C	O=C(c1ccc2c(c1)Cc1ccccc1-2)N1Cc2cccn2Cc2ccccc21
170 to 174 °C	COC(=O)C=C(NC1C=CC=CC1(F)NC(=CC(=O)OC)C(=O)OC)C(=O)OC (stereo not given)
194 to 196 °C	O=C(Nc1cccc(Br)c1)c1ccccc1SSc1ccccc1C(=O)Nc1cccc(Br)c1
125 to 126 °C	c1ccc2c(c1)CCN2Nc1ccncc1
216 to 218 °C	NC(=O)c1cc(-n2cncn2)ccc1N
199 °C	CCN1c2ccccc2CC1CNC(=N)N (stereo not given)
222 to 224 °C	O=c1c(Cc2ccncc2)c(-c2ccccc2)[nH]c2ccccc12

Structure (SMILES)	melting point
O=[N+]([O-])c1ccc(N2C3C4CCC(C4)C32)c2nnoc12 (stereo not given)	132 to 133 °C
